According to ChEMBL document CHEMBL5465560, “Selectivity Literature for EUbOPEN Chemogenomic Library” (2024):
Each block holds one compound with its values, some of them ahead of it.

How the values were obtained:
[1] = molecular target: T1, Activin receptor type-1B (Homo sapiens) (UniProt P36896); conditions: at 10 µM
T1 sequence (whole entry): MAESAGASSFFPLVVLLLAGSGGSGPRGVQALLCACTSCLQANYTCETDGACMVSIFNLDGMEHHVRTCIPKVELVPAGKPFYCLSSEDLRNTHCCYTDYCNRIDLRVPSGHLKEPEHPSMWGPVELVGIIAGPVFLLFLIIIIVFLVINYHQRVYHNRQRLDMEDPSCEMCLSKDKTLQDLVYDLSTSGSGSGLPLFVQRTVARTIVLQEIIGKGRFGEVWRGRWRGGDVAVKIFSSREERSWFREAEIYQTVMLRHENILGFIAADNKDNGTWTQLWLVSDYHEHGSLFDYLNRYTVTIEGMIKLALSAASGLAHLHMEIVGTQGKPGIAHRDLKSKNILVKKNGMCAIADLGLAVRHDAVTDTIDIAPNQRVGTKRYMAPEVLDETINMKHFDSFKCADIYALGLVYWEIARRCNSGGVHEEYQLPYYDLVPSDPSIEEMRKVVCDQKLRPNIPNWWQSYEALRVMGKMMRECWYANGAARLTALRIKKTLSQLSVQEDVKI

[2] = molecular target: RAC-alpha serine/threonine-protein kinase (Homo sapiens, UniProt P31749); assay: Selectivity interaction (KinomeScan (DiscoverX)) EUB0000655a AKT1; conditions: at 10 µM
[3] = molecular target: T2, Aurora kinase C (Homo sapiens) (UniProt Q9UQB9); assay: Selectivity interaction (KinomeScan (DiscoverX)) EUB0000618a AURKC; conditions: at 10 µM
T2 sequence (whole entry): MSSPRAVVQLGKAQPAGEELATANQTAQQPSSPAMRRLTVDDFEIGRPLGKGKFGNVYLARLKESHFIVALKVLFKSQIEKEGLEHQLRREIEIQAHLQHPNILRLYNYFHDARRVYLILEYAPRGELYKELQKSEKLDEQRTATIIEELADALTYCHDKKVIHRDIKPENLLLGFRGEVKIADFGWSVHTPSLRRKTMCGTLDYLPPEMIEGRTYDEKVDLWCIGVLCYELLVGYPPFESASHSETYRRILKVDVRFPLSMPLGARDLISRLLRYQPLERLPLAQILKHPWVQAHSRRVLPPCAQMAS

[4] = molecular target: Serine/threonine-protein kinase MARK1 (Homo sapiens) (UniProt Q9P0L2); assay: Selectivity interaction (SelectScreen profiling (Invitrogen)) EUB0000607a MARK1; conditions: at 2 µM
[5] = molecular target: Serine/threonine-protein kinase Nek7 (Homo sapiens) (UniProt Q8TDX7); assay: Selectivity interaction (KinomeScan (DiscoverX)) EUB0001619a NEK7; conditions: at 1 µM
[6] = molecular target: cAMP-dependent protein kinase catalytic subunit alpha (Homo sapiens, UniProt P17612); assay: Selectivity interaction (KinomeScan (DiscoverX)) EUB0001619a PRKACA; conditions: at 1 µM
[7] = molecular target: T3, Tyrosine-protein kinase Mer (Homo sapiens) (UniProt Q12866); assay: Selectivity interaction (Upstate Kinase Profiler service (Millipore)) EUB0000056c MERTK; conditions: at 1 µM
T3 sequence (whole entry): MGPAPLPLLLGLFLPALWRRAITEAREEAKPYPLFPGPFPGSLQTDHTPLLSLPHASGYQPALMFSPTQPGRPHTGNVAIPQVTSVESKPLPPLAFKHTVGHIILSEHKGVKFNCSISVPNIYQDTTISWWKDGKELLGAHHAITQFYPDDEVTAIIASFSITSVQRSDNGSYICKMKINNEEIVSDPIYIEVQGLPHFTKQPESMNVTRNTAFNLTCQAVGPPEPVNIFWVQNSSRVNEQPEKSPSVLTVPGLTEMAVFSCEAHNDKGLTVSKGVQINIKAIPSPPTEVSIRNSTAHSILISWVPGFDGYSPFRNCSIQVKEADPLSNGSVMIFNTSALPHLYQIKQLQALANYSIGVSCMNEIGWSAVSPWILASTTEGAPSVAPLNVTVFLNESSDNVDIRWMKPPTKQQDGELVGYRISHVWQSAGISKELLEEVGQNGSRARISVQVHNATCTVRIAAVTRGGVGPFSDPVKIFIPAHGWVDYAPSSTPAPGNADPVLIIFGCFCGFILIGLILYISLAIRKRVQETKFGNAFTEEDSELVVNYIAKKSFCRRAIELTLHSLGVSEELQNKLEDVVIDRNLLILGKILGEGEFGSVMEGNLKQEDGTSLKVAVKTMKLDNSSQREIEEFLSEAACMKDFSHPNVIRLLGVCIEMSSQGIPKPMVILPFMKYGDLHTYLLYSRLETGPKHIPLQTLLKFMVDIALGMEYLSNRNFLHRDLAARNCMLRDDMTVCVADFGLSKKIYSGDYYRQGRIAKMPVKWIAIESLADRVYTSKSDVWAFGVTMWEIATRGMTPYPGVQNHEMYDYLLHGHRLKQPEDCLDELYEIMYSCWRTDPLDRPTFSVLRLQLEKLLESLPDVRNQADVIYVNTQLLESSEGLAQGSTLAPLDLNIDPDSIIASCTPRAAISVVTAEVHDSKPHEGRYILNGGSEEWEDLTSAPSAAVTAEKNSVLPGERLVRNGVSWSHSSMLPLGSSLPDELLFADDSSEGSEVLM

[8] = molecular target: Mitogen-activated protein kinase kinase kinase 20 (Homo sapiens) (UniProt Q9NYL2); assay: Selectivity interaction (Kinase panel (Invitrogen)) EUB0000639a MAP3K20; conditions: at 200 nM
[9] = molecular target: Serine/threonine-protein kinase 26 (Homo sapiens, UniProt Q9P289); assay: Selectivity interaction (KinomeScan (DiscoverX)) EUB0000229b STK26; conditions: at 10 µM
[10] = molecular target: ALK tyrosine kinase receptor (Homo sapiens, UniProt Q9UM73); assay: Selectivity interaction (ProQinase) EUB0000171b ALK; conditions: at 1 µM
[11] = molecular target: Glycogen synthase kinase-3 alpha (Homo sapiens, UniProt P49840); assay: Selectivity interaction (KinomeScan (DiscoverX)) EUB0001049a GSK3A; conditions: at 1 µM
[12] = molecular target: Cyclin-dependent kinase 4/cyclin D1 (Homo sapiens, UniProt P11802); assay: Selectivity interaction (Competition-binding assay (DiscoverX)) EUB0001632a CDK4; assay type: protein-complex assay
[13] = molecular target: Serine/threonine-protein kinase PLK2 (Homo sapiens, UniProt Q9NYY3); assay: Selectivity interaction (KinomeScan (DiscoverX)) EUB0000695a PLK2; conditions: at 100 nM
Chain of Serine/threonine-protein kinase PLK2 (Q9NYY3 whole entry, looked up): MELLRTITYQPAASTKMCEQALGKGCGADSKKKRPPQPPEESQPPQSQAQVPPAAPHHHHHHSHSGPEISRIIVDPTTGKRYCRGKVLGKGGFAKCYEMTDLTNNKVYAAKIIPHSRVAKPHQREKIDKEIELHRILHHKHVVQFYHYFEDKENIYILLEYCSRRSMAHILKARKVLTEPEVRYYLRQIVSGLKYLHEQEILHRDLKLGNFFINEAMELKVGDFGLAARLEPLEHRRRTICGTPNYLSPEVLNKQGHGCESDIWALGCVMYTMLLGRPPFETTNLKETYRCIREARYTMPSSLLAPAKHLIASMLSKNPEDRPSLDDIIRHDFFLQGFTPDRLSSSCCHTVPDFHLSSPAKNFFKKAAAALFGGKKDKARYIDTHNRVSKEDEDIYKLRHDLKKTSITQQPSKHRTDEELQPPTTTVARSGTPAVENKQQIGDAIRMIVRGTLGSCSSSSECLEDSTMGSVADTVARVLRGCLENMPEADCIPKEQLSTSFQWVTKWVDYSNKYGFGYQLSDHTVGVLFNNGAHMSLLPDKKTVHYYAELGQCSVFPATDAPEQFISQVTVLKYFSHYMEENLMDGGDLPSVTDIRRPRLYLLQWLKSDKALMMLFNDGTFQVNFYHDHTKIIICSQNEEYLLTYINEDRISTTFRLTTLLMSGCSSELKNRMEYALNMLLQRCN

Chain of Cyclin-dependent kinase 4/cyclin D1 (P11802 whole entry): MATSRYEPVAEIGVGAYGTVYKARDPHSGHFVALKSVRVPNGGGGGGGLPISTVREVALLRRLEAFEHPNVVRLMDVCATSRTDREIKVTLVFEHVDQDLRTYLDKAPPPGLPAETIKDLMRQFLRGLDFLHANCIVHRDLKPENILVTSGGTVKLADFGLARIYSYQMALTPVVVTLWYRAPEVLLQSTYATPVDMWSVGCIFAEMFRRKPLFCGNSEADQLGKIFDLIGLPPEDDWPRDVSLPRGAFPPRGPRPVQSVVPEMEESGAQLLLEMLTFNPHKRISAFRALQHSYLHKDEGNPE
Chain of Cyclin-dependent kinase 4/cyclin D1 (P24385 whole entry, further chain): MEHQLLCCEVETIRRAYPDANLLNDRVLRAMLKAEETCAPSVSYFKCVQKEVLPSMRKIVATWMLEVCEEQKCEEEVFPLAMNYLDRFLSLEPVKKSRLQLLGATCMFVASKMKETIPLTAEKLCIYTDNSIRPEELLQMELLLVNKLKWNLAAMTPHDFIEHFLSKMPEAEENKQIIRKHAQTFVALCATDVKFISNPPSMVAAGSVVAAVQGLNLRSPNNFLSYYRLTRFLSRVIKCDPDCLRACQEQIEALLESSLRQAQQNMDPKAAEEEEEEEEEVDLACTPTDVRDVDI
Chain of ALK tyrosine kinase receptor (Q9UM73 19-1620 limits assumed): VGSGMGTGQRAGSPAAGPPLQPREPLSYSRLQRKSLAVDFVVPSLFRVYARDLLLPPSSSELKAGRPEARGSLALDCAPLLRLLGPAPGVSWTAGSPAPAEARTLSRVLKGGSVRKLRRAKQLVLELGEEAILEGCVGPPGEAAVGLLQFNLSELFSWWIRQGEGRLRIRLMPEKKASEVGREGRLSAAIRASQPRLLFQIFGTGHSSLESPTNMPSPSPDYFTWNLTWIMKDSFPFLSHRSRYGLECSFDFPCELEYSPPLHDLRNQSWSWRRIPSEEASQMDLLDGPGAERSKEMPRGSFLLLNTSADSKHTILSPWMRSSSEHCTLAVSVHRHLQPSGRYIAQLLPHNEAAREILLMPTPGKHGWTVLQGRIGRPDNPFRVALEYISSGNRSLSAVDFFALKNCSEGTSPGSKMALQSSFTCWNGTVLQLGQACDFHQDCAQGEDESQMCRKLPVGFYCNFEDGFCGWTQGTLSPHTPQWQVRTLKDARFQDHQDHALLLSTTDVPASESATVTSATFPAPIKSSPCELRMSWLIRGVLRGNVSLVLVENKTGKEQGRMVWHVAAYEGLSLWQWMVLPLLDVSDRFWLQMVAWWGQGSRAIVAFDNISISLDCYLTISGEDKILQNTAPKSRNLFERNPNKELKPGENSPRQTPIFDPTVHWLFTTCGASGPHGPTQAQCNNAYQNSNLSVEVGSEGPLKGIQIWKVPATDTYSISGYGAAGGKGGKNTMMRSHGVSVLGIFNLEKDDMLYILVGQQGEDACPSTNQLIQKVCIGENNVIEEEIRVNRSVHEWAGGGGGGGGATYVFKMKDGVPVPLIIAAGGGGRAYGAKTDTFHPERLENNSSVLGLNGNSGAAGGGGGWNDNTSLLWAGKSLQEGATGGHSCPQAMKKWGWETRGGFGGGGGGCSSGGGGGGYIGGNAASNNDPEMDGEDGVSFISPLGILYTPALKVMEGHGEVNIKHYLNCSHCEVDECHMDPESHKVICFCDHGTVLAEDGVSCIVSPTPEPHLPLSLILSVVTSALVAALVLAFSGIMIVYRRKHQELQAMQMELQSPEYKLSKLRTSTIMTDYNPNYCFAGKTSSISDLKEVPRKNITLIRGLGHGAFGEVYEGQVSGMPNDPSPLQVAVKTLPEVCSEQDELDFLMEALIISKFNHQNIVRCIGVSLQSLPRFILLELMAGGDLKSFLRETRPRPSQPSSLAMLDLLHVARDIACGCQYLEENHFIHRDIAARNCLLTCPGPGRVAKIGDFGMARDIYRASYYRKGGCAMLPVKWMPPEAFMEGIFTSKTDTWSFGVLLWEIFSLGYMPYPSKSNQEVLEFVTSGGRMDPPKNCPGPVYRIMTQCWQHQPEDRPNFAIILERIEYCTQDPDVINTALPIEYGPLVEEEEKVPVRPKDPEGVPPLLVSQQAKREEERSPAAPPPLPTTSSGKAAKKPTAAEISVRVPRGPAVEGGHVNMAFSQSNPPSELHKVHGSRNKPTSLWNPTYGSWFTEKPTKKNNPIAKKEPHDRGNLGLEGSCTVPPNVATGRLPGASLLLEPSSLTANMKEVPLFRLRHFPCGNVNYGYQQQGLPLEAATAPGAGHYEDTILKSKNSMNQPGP
Chain of Serine/threonine-protein kinase Nek7 (Homo sapiens) (Q8TDX7 whole entry, looked up): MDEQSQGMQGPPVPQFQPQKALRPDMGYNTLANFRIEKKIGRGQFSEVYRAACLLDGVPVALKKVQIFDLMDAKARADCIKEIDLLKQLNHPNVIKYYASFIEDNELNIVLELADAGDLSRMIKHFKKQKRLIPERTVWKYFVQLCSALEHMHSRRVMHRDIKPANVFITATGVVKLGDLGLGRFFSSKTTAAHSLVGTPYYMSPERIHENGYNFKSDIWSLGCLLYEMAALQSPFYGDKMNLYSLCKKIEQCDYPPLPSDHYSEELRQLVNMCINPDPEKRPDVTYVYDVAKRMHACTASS
Chain of Serine/threonine-protein kinase MARK1 (Homo sapiens) (Q9P0L2 whole entry, looked up): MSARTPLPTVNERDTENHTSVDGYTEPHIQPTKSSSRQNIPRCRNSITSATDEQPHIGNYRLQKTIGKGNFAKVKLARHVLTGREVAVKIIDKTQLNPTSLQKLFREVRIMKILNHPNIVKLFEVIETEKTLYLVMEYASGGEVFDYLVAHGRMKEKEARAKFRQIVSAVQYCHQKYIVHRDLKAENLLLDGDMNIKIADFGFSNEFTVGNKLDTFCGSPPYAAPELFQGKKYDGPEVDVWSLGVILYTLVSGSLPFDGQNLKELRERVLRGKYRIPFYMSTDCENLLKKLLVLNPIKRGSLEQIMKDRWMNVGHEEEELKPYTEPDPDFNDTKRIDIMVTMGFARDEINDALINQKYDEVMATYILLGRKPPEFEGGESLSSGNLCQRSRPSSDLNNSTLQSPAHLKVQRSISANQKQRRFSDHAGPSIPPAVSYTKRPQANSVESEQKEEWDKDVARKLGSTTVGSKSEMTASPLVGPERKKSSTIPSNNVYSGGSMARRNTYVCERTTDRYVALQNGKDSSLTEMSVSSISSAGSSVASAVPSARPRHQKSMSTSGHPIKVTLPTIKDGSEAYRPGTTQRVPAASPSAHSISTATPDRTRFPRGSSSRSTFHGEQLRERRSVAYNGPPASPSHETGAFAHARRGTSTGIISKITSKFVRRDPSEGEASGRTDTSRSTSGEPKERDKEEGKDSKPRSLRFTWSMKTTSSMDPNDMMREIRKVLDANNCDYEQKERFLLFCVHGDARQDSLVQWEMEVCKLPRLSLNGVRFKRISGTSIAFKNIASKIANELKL
Chain of RAC-alpha serine/threonine-protein kinase (P31749 whole entry): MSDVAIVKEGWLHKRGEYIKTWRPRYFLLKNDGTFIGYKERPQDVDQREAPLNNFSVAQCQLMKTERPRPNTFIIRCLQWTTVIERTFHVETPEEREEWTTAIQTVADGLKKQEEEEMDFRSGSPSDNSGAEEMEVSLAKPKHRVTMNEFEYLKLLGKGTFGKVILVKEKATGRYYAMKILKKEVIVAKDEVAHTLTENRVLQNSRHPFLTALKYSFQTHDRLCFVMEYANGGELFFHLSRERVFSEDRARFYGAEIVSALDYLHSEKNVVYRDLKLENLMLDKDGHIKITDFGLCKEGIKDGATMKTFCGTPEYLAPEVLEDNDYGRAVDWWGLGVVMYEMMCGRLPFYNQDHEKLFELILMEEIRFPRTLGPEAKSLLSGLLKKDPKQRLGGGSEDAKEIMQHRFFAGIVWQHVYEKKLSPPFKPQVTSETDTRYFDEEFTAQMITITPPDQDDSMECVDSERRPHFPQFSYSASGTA
Chain of Serine/threonine-protein kinase 26 (Q9P289 2-416 limits assumed): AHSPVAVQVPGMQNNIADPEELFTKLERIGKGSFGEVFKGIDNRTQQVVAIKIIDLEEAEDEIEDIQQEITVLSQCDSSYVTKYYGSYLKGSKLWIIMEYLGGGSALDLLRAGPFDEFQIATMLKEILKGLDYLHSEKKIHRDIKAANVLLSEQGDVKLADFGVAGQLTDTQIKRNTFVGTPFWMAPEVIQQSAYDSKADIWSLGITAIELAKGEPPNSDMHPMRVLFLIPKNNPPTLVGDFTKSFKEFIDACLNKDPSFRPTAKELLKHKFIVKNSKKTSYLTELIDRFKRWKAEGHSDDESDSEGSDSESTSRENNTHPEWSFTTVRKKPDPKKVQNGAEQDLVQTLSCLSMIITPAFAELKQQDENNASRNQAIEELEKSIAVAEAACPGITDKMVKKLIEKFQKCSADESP

% of control [1]: 100%
Compound: CCN(CC)CCCCNc1ncc2cc(-c3cc(OC)cc(OC)c3)c(NC(=O)NC(C)(C)C)nc2n1

Compound: CN(C)CCOc1ccc(-c2nc(-c3ccncc3)c(-c3ccc4c(c3)CC/C4=N\O)[nH]2)cc1
% of control [2]: 97%

Compound: O[C@H]1CC[C@H](Nc2ncc3nc(Nc4c(F)cc(F)cc4F)n([C@H]4CCOC4)c3n2)CC1
% of control [3]: 100%

Compound: CNC(=O)Nc1ccc(-c2nc(N3CC4CCC(C3)O4)c3cnn(C4CCC5(CC4)OCCO5)c3n2)cc1
% of inhibition [4]: 13%

Compound: N#Cc1cccc(-c2c[nH]c3ncnc(N4CCOCC4)c23)c1
% of control [5]: 100%
% of control [6]: 94%

% of inhibition [7]: 97%
Compound: Cc1ccc(-c2ccc3c(ccc4sc5c(c43)NC[C@@H](C)NC5=O)n2)cn1

% of inhibition [8]: 1.12%
Compound: CC[C@@H]1[C@H](F)C(=O)N[C@@H]1COc1nccc2cc(C(N)=O)c(OC)cc12 [ZIMLOVISERTIB]

Compound: COc1cc(N(C)c2ccnc3ccc(C(F)(F)F)cc23)cc(OC)c1OC
% binding [9]: 99%

% of control [10]: 94%
Compound: C=CC(=O)Nc1cccc(C(=O)Nc2ccc(Nc3cc(-c4[nH]c(SC)nc4C)ccn3)cc2)c1

Compound: COc1cc(Nc2nc(C)cc(-c3cnn4nc(OC)ccc34)n2)cc(C(F)(F)F)c1
% of control [11]: 100%

Kd [12]: > 10 µM
Compound: Cn1cc(-n2cnc3c(NCc4nc5cc(Cl)c(Cl)cc5[nH]4)nc(N4CCOCC4)nc32)cn1

Compound: Cc1cc(F)c(C(=O)Nc2cccc(-c3nncn3C(C)C)n2)cc1-n1cnc(C2CC2)c1
% of control [13]: 88%
